Source: ChEMBL document CHEMBL4257522, “Synthesis and preliminary anti-inflammatory and anti-bacterial evaluation of some diflunisal aza-analogs” (Medchemcomm, 2018)
The source made the active and inactive calls. The rule behind the calls is not given here.

What was measured:
[1] = system: Macrophage cell line; experiment: Cytotoxicity against human PBMC-differentiated macrophages treated for 24 hrs followed by compound washout and measured after 48 hrs by MTT assay; format: cell-based
[2] = system: Macrophage cell line; experiment: Antiinflammatory activity in human PBMC-differentiated macrophages assessed as inhibition of LPS-induced IL-8 production at 0.01 to 10 uM measured after 24 hrs by ELISA; format: functional, cell-based
[3] = system: Macrophage cell line; experiment: Antiinflammatory activity in human PBMC-differentiated macrophages assessed as inhibition of LPS-induced prostaglandin production at 0.01 to 10 uM measured after 24 hrs by ELISA; format: functional, cell-based
[4] = system: Macrophage cell line; experiment: Induction of TNFalpha production in human PBMC-differentiated macrophages after 24 hrs by ELISA; format: cell-based
[5] = system: Macrophage cell line; experiment: Induction of IL-8 production in human PBMC-differentiated macrophages after 24 hrs by ELISA; format: cell-based
[6] = system: Macrophage cell line; experiment: Induction of IL-1beta production in human PBMC-differentiated macrophages after 24 hrs by ELISA; format: cell-based
[7] = system: Macrophage cell line; experiment: Induction of prostaglandin production in human PBMC-differentiated macrophages after 24 hrs by ELISA; format: cell-based
[8] = system: Staphylococcus aureus; experiment: Toxicity in Staphylococcus aureus ATCC 33592 up to 32 uM measured after 16 hrs; format: organism-based
[9] = system: Streptococcus pyogenes; experiment: Toxicity in Streptococcus pyogenes ATCC 14289 up to 32 uM measured after 16 hrs; format: organism-based
[10] = system: Klebsiella pneumoniae; experiment: Toxicity in Klebsiella pneumoniae ATCC 13883 up to 32 uM measured after 16 hrs; format: organism-based
[11] = system: Enterococcus faecium; experiment: Toxicity in Enterococcus faecium ATCC 700221 up to 32 uM measured after 16 hrs; format: organism-based; settings: in vitro
[12] = system: Escherichia coli; experiment: Toxicity in Escherichia coli ATCC 43894 up to 32 uM measured after 16 hrs; format: organism-based
[13] = system: Staphylococcus aureus; experiment: Potentiation of methicillin-induced antibacterial activity against Staphylococcus aureus ATCC 33592 assessed as minimum modulatory concentration up to 32 uM measured after 16 hrs in presence of MIC/4 methicillin; format: functional; settings: ATCC 33592, 16 h, read-out: MEC
[14] = system: Staphylococcus aureus; experiment: Potentiation of geneticin-induced antibacterial activity against Staphylococcus aureus ATCC 33592 assessed as minimum modulatory concentration up to 32 uM measured after 16 hrs in presence of MIC/4 geneticin; format: functional; settings: ATCC 33592, 16 h, read-out: MEC
[15] = system: Staphylococcus aureus; experiment: Potentiation of ciprofloxacin-induced antibacterial activity against Staphylococcus aureus ATCC 33592 assessed as minimum modulatory concentration up to 32 uM measured after 16 hrs in presence of MIC/4 ciprofloxacin; format: functional; settings: ATCC 33592, 16 h, read-out: MEC
[16] = system: Staphylococcus aureus; experiment: Potentiation of tetracycline-induced antibacterial activity against Staphylococcus aureus ATCC 33592 assessed as minimum modulatory concentration up to 32 uM measured after 16 hrs in presence of MIC/4 tetracycline; format: functional; settings: ATCC 33592, 16 h, read-out: MEC
[17] = system: Staphylococcus aureus; experiment: Potentiation of erythromycin-induced antibacterial activity against Staphylococcus aureus ATCC 33592 assessed as minimum modulatory concentration up to 32 uM measured after 16 hrs in presence of MIC/4 erythromycin; format: functional; settings: ATCC 33592, 16 h, read-out: MEC
[18] = system: Streptococcus pyogenes; experiment: Potentiation of methicillin-induced antibacterial activity against Streptococcus pyogenes ATCC 14289 assessed as minimum modulatory concentration up to 32 uM measured after 16 hrs in presence of MIC/4 methicillin; format: functional; settings: ATCC 14289, 16 h, read-out: MEC
[19] = system: Streptococcus pyogenes; experiment: Potentiation of geneticin-induced antibacterial activity against Streptococcus pyogenes ATCC 14289 assessed as minimum modulatory concentration up to 32 uM measured after 16 hrs in presence of MIC/4 geneticin; format: functional; settings: ATCC 14289, 16 h, read-out: MEC
[20] = system: Streptococcus pyogenes; experiment: Potentiation of erythromycin-induced antibacterial activity against Streptococcus pyogenes ATCC 14289 assessed as minimum modulatory concentration up to 32 uM measured after 16 hrs in presence of MIC/4 erythromycin; format: functional; settings: ATCC 14289, 16 h, read-out: MEC
[21] = system: Klebsiella pneumoniae; experiment: Potentiation of methicillin-induced antibacterial activity against Klebsiella pneumoniae ATCC 13883 assessed as minimum modulatory concentration up to 32 uM measured after 16 hrs in presence of MIC/4 methicillin; format: functional; settings: ATCC 13883, 16 h, read-out: MEC
[22] = system: Klebsiella pneumoniae; experiment: Potentiation of geneticin-induced antibacterial activity against Klebsiella pneumoniae ATCC 13883 assessed as minimum modulatory concentration up to 32 uM measured after 16 hrs in presence of MIC/4 geneticin; format: functional; settings: ATCC 13883, 16 h, read-out: MEC
[23] = system: Klebsiella pneumoniae; experiment: Potentiation of ciprofloxacin-induced antibacterial activity against Klebsiella pneumoniae ATCC 13883 assessed as minimum modulatory concentration up to 32 uM measured after 16 hrs in presence of MIC/4 ciprofloxacin; format: functional; settings: ATCC 13883, 16 h, read-out: MEC
[24] = system: Klebsiella pneumoniae; experiment: Potentiation of tetracycline-induced antibacterial activity against Klebsiella pneumoniae ATCC 13883 assessed as minimum modulatory concentration up to 32 uM measured after 16 hrs in presence of MIC/4 tetracycline; format: functional; settings: ATCC 13883, 16 h, read-out: MEC
[25] = system: Klebsiella pneumoniae; experiment: Potentiation of erythromycin-induced antibacterial activity against Klebsiella pneumoniae ATCC 13883 assessed as minimum modulatory concentration up to 32 uM measured after 16 hrs in presence of MIC/4 erythromycin; format: functional; settings: ATCC 13883, 16 h, read-out: MEC
[26] = system: Enterococcus faecium; experiment: Potentiation of methicillin-induced antibacterial activity against Enterococcus faecium ATCC 700221 assessed as minimum modulatory concentration up to 32 uM measured after 16 hrs in presence of MIC/4 methicillin; format: functional; settings: ATCC 700221, 16 h, read-out: MEC
[27] = system: Enterococcus faecium; experiment: Potentiation of geneticin-induced antibacterial activity against Enterococcus faecium ATCC 700221 assessed as minimum modulatory concentration up to 32 uM measured after 16 hrs in presence of MIC/4 geneticin; format: functional; settings: ATCC 700221, 16 h, read-out: MEC
[28] = system: Enterococcus faecium; experiment: Potentiation of tetracycline-induced antibacterial activity against Enterococcus faecium ATCC 700221 assessed as minimum modulatory concentration up to 32 uM measured after 16 hrs in presence of MIC/4 tetracycline; format: functional; settings: ATCC 700221, 16 h, read-out: MEC
[29] = system: Enterococcus faecium; experiment: Potentiation of erythromycin-induced antibacterial activity against Enterococcus faecium ATCC 700221 assessed as minimum modulatory concentration up to 32 uM measured after 16 hrs in presence of MIC/4 erythromycin; format: functional; settings: ATCC 700221, 16 h, read-out: MEC
[30] = system: Pseudomonas aeruginosa; experiment: Potentiation of geneticin-induced antibacterial activity against Pseudomonas aeruginosa ATCC BAA-2108 assessed as minimum modulatory concentration up to 32 uM measured after 16 hrs in presence of MIC/4 geneticin; format: functional; settings: ATCC BAA-2108, 16 h, read-out: MEC
[31] = system: Pseudomonas aeruginosa; experiment: Potentiation of erythromycin-induced antibacterial activity against Pseudomonas aeruginosa ATCC BAA-2108 assessed as minimum modulatory concentration up to 32 uM measured after 16 hrs in presence of MIC/4 erythromycin; format: functional; settings: ATCC BAA-2108, 16 h, read-out: MEC
[32] = system: Escherichia coli; experiment: Potentiation of geneticin-induced antibacterial activity against Escherichia coli ATCC 43894 assessed as minimum modulatory concentration up to 32 uM measured after 16 hrs in presence of MIC/4 geneticin; format: functional; settings: ATCC 43894, 16 h, read-out: MEC
[33] = system: Escherichia coli; experiment: Potentiation of tetracycline-induced antibacterial activity against Escherichia coli ATCC 43894 assessed as minimum modulatory concentration up to 32 uM measured after 16 hrs in presence of MIC/4 tetracycline; format: functional; settings: ATCC 43894, 16 h, read-out: MEC
[34] = system: Escherichia coli; experiment: Potentiation of erythromycin-induced antibacterial activity against Escherichia coli ATCC 43894 assessed as minimum modulatory concentration up to 32 uM measured after 16 hrs in presence of MIC/4 erythromycin; format: functional; settings: ATCC 43894, 16 h, read-out: MEC

SMILES | IC50 [1] [µM] | inhibition [2] | inhibition [3] | Activity [4] | Activity [5] | Activity [6] | Activity [7] | Activity [8] | Activity [9] | Activity [10] | Activity [11] | Activity [12] | minimal effective concentration [13] [µM] | minimal effective concentration [14] [µM] | minimal effective concentration [15] [µM] | minimal effective concentration [16] [µM] | minimal effective concentration [17] [µM] | minimal effective concentration [18] [µM] | minimal effective concentration [19] [µM] | minimal effective concentration [20] [µM] | further results
C[n+]1cc(O)c(C(=O)[O-])cc1-c1ccccc1 | 91.4 | inactive | inactive | Non-Toxic | Non-Toxic | Non-Toxic | Non-Toxic | Non-Toxic | Non-Toxic | Non-Toxic | Non-Toxic | Non-Toxic | > 32 | > 32 | > 32 | > 32 | > 32 | > 32 | > 32 | > 32 | minimal effective concentration [21]: > 32 µM; minimal effective concentration [22]: > 32 µM; minimal effective concentration [23]: > 32 µM; minimal effective concentration [24]: > 32 µM; minimal effective concentration [25]: > 32 µM; minimal effective concentration [26]: > 32 µM; minimal effective concentration [27]: > 32 µM; minimal effective concentration [28]: > 32 µM; minimal effective concentration [29]: > 32 µM; minimal effective concentration [30]: > 32 µM; minimal effective concentration [31]: > 32 µM; minimal effective concentration [32]: > 32 µM; minimal effective concentration [33]: > 32 µM; minimal effective concentration [34]: > 32 µM
Cc1nc(-c2ccccc2)c(O)cc1C(=O)O | 97.4 | inactive | inactive | Non-Toxic | Non-Toxic | Non-Toxic | Non-Toxic | Non-Toxic | Non-Toxic | Non-Toxic | Non-Toxic | Non-Toxic | 0.5 | 4 | 16 | 4 | 4 | 4 | 2 | 4 | minimal effective concentration [21]: > 32 µM; minimal effective concentration [22]: > 32 µM; minimal effective concentration [23]: > 32 µM; minimal effective concentration [24]: > 32 µM; minimal effective concentration [25]: > 32 µM; minimal effective concentration [26]: 0.5 µM; minimal effective concentration [27]: 8 µM; minimal effective concentration [28]: 1 µM; minimal effective concentration [29]: 4 µM; minimal effective concentration [30]: > 32 µM; minimal effective concentration [31]: 4 µM; minimal effective concentration [32]: > 32 µM; minimal effective concentration [33]: > 32 µM; minimal effective concentration [34]: > 32 µM
